Experimental data published in patent publication US8354403B2, “Pyrrolidine derived beta 3 adrenergic receptor agonists” (Merck Sharp & Dohme Corp., priority 2009, dated 2013).
pEC50: −log10 of the molar value.

Molecular target: T1, human β3 adrenergic receptor (Homo sapiens, UniProt P13945)
T1 construct: expressed in transfected cells; host or cells: Chinese hamster ovary (CHO) cells, stably transfected
Assay: Beta-3 agonist in vitro functional assay: cAMP production (LANCE TR-FRET) in CHO cells stably transfected with the cloned β3 receptor
Format: cell-based
Settings: Table 8; Beta-3 agonist in vitro functional assay; read-out: Human β3 agonist functional activity
Summary of the method: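 CHO cells stably expressing the cloned receptor, in HEPES-buffered HBSS with BSA and 0.6 mM IBMX, 6,000 cells/well, exposed to compound for 30 min at RT. cAMP read by LANCE TR-FRET against a cAMP standard curve. Isoproterenol defines maximal stimulation.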

T1 sequence (P13945 whole entry): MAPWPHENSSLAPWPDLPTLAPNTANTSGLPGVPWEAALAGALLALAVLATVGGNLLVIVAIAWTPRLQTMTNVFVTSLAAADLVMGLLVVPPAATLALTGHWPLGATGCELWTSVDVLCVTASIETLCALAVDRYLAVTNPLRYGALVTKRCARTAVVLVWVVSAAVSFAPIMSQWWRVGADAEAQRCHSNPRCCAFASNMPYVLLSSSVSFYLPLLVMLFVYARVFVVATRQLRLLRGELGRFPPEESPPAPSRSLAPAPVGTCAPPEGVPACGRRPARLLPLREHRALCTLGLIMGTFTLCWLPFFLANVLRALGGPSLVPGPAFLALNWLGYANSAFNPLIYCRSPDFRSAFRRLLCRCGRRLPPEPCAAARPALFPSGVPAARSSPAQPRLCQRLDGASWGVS

Row | SMILES | pEC50
1 | O=C(c1ccc(C[C@@H]2CC[C@H]([C@H](O)c3ccccc3)N2)cc1)N1CCC2(CCNC2)CC1 [Example 306] | 8.00 to 9.00
2 | O=C(c1ccc(C[C@@H]2CC[C@H]([C@H](O)c3ccccc3)N2)cc1)N1CCC2(CCCO2)CC1 [Example 307] | 7.00 to 8.00
3 | O=C(c1ccc(C[C@@H]2CC[C@H]([C@H](O)c3ccccc3)N2)cc1)N1CCC2(CC1)OC(C1CC1)c1ccccc12 (stereo partly drawn) [Example 308] | 7.00 to 8.00
4 | O=C(c1ccc(C[C@@H]2CC[C@H]([C@H](O)c3ccccc3)N2)cc1)N1CCC2(CC1)CC(c1ccc(F)cc1)CO2 (stereo partly drawn) [Example 310] | 6.00 to 7.00
5 | O=C(c1ccc(C[C@@H]2CC[C@H]([C@H](O)c3ccccc3)N2)cc1)N1CCC2(CCOC2)CC1 [Example 311] | 6.00 to 7.00
6 | CC1(C)CC2(CCN(C(=O)c3ccc(C[C@@H]4CC[C@H]([C@H](O)c5ccccc5)N4)cc3)CC2)CO1 [Example 312] | 6.00 to 7.00
7 | CC1(C)OCC2(CCN(C(=O)c3ccc(C[C@@H]4CC[C@H]([C@H](O)c5ccccc5)N4)cc3)CC2)C1O (stereo partly drawn) [Example 313] | 6.00 to 7.00
8 | O=C(c1ccc(C[C@@H]2CC[C@H]([C@H](O)c3ccccc3)N2)cc1)N1CCC2(CCCC2O)CC1 (stereo partly drawn) [Example 314] | 6.00 to 7.00
9 | NC1CCCC12CCN(C(=O)c1ccc(C[C@@H]3CC[C@H]([C@H](O)c4ccccc4)N3)cc1)CC2 (stereo partly drawn) [Example 315] | 6.00 to 7.00
10 | O=C(c1ccc(C[C@@H]2CC[C@H]([C@H](O)c3ccccc3)N2)cc1)N1CCC2(CCCC2=O)CC1 [Example 316] | 8.00 to 9.00
11 | O=C(c1ccc(CC2CCC(C(O)c3ccccc3)N2)cc1)N1CCC2(CCCC2=NO)CC1 (stereo not drawn) [Example 317] | 7.00 to 8.00
12 | CON=C1CCCC12CCN(C(=O)c1ccc(CC3CCC(C(O)c4ccccc4)N3)cc1)CC2 (stereo not drawn) [Example 318] | 6.00 to 7.00
13 | COC(=O)C1CC2(CCN(C(=O)c3ccc(C[C@@H]4CC[C@H]([C@H](O)c5ccccc5)N4)cc3)CC2)c2ccccc21 (stereo partly drawn) [Example 320] | 7.00 to 8.00
14 | O=C(c1ccc(C[C@@H]2CC[C@H]([C@H](O)c3ccccc3)N2)cc1)N1CCC2(CCc3cn[nH]c32)CC1 [Example 321] | 6.00 to 7.00
15 | O=C(c1ccc(C[C@@H]2CC[C@H]([C@H](O)c3ccccc3)N2)cc1)N1CCC2(CCc3cnoc32)CC1 [Example 322] | 7.00 to 8.00
16 | O=C1CC2(CCN(C(=O)c3ccc(C[C@@H]4CC[C@H]([C@H](O)c5ccccc5)N4)cc3)CC2)Oc2ccccc21 [Example 323] | 7.00 to 8.00
17 | CC(C)COc1ccc2c(c1)C(=O)CC1(CCN(C(=O)c3ccc(C[C@@H]4CC[C@H]([C@H](O)c5ccccc5)N4)cc3)CC1)O2 [Example 324] | 7.00 to 8.00

Row | SMILES | pEC50
18 | O=C1CC2(CCN(C(=O)c3ccc(C[C@@H]4CC[C@H]([C@H](O)c5ccccc5)N4)cc3)CC2)Oc2ccc(-c3nnn[nH]3)cc21 [Example 325] | 7.00 to 8.00
19 | O=C1CC2(CCN(C(=O)c3ccc(C[C@@H]4CC[C@H]([C@H](O)c5ccccc5)N4)cc3)CC2)Sc2ccccc21 [Example 326] | 8.00 to 9.00
20 | O=C1CC2(CCN(C(=O)c3ccc(C[C@@H]4CC[C@H]([C@H](O)c5cccnc5)N4)cc3)CC2)Sc2ccccc21 [Example 327] | 7.00 to 8.00
21 | COc1ccc2c(c1)C(=O)CC1(CCN(C(=O)c3ccc(C[C@@H]4CC[C@H]([C@H](O)c5ccccc5)N4)cc3)CC1)S2 [Example 328] | 8.00 to 9.00
22 | COc1ccc2c(c1)C(=O)CC1(CCN(C(=O)c3ccc(C[C@@H]4CC[C@H]([C@H](O)c5cccnc5)N4)cc3)CC1)S2 [Example 329] | 7.00 to 8.00
23 | O=C1Nc2ncccc2C2(CCN(C(=O)c3ccc(C[C@@H]4CC[C@H]([C@H](O)c5ccccc5)N4)cc3)CC2)O1 [Example 330] | 7.00 to 8.00
24 | COc1cccc2c1C1(CCN(C(=O)c3ccc(C[C@@H]4CC[C@H]([C@H](O)c5cccnc5)N4)cc3)CC1)OC(=O)N2 [Example 331] | 7.00 to 8.00
25 | O=C1NC2(CCN(C(=O)c3ccc(C[C@@H]4CC[C@H]([C@H](O)c5ccccc5)N4)cc3)CC2)Oc2ccccc21 [Example 332] | 7.00 to 8.00
26 | O=C1OC2(CCN(C(=O)c3ccc(C[C@@H]4CC[C@H]([C@H](O)c5ccccc5)N4)cc3)CC2)Cc2ccccc21 [Example 333] | 8.00 to 9.00
27 | O=C(c1ccc(C[C@@H]2CC[C@H]([C@H](O)c3ccccc3)N2)cc1)N1CCC2(CC1)Nc1ccccc1S(=O)(=O)N2 [Example 334] | 8.00 to 9.00
28 | CC1C(=O)c2cc(S(C)(=O)=O)ccc2OC12CCN(C(=O)c1ccc(C[C@@H]3CC[C@H]([C@H](O)c4ccccc4)N3)cc1)CC2 (stereo partly drawn) [Example 335] | 7.00 to 8.00
29 | O=C(c1ccc(C[C@@H]2CC[C@H]([C@H](O)c3ccccc3)N2)cc1)N1CCC2(CCc3ccccc3S2(=O)=O)CC1 [Example 336] | 8.00 to 9.00
30 | O=C(c1ccc(C[C@@H]2CC[C@H]([C@H](O)c3ccccc3)N2)cc1)N1CCC2(C=Cc3ccccc3S2(=O)=O)CC1 [Example 337] | 8.00 to 9.00
31 | O=C1CC2(CCN(C(=O)c3ccc(C[C@@H]4CC[C@H]([C@H](O)c5ccccc5)N4)cc3)CC2)S(=O)(=O)c2ccccc21 [Example 338] | 8.00 to 9.00
32 | COc1ccc2c(c1)C(=O)CC1(CCN(C(=O)c3ccc(C[C@@H]4CC[C@H]([C@H](O)c5ccccc5)N4)cc3)CC1)S2(=O)=O [Example 339] | 8.00 to 9.00
33 | O=C1CC2(CCN(C(=O)c3ccc(C[C@@H]4CC[C@H]([C@H](O)c5ccccc5)N4)cc3)CC2)S(=O)(=O)c2sccc21 [Example 340] | 8.00 to 9.00

Same assay, conditions: Table 9; Beta-3 agonist in vitro functional assay; read-out: Human β3 agonist functional activity

Row | SMILES | pEC50
34 | CC(=O)N1CCN(C(=O)c2ccc(C[C@@H]3CC[C@H]([C@H](O)c4ccccc4)N3)cc2)CC1 [Example 343] | 6.00 to 7.00
35 | CCOC(=O)N1CCN(C(=O)c2ccc(C[C@@H]3CC[C@H]([C@H](O)c4ccccc4)N3)cc2)CC1 [Example 344] | 6.00 to 7.00
36 | CS(=O)(=O)N1CCN(C(=O)c2ccc(C[C@@H]3CC[C@H]([C@H](O)c4ccccc4)N3)cc2)CC1 [Example 345] | 6.00 to 7.00
37 | O=C(c1ccc(C[C@@H]2CC[C@H]([C@H](O)c3ccccc3)N2)cc1)N1CCN(S(=O)(=O)c2ccccc2)CC1 [Example 346] | 7.00 to 8.00
38 | O=C(c1ccccc1)N1CCN(C(=O)c2ccc(C[C@@H]3CC[C@H]([C@H](O)c4ccccc4)N3)cc2)CC1 [Example 347] | 6.00 to 7.00
39 | O=C(c1ccc(C[C@@H]2CC[C@H]([C@H](O)c3ccccc3)N2)cc1)N1CCN(C(=O)c2ccccn2)CC1 [Example 348] | 7.00 to 8.00
40 | O=C(c1ccc(C[C@@H]2CC[C@H]([C@H](O)c3ccccc3)N2)cc1)N1CCN(C(=O)c2ccco2)CC1 [Example 349] | 6.00 to 7.00
41 | O=C(O)c1ccccc1N1CCN(C(=O)c2ccc(C[C@@H]3CC[C@H]([C@H](O)c4ccccc4)N3)cc2)CC1 [Example 350] | 6.00 to 7.00
42 | COC(=O)c1ccccc1N1CCN(C(=O)c2ccc(C[C@@H]3CC[C@H]([C@H](O)c4ccccc4)N3)cc2)CC1 [Example 351] | 7.00 to 8.00
43 | O=C(c1ccc(C[C@@H]2CC[C@H]([C@H](O)c3ccccc3)N2)cc1)N1CCN(c2ccc3c(c2)OCO3)CC1 [Example 353] | 6.00 to 7.00
44 | O=C(c1ccc(C[C@@H]2CC[C@H]([C@H](O)c3ccccc3)N2)cc1)N1CCN(c2ccc3c(c2)OCCO3)CC1 [Example 354] | 6.00 to 7.00
45 | O=C(c1ccc(C[C@@H]2CC[C@H]([C@H](O)c3ccccc3)N2)cc1)N1CCN(c2ccccn2)CC1 [Example 355] | 6.00 to 7.00
46 | O=C(c1ccc(C[C@@H]2CC[C@H]([C@H](O)c3ccccc3)N2)cc1)N1CCN(c2ccncc2)CC1 [Example 356] | 6.00 to 7.00
47 | O=C(c1ccc(C[C@@H]2CC[C@H]([C@H](O)c3ccccc3)N2)cc1)N1CCN(c2ncccc2F)CC1 [Example 357] | 6.00 to 7.00
48 | O=C(c1ccc(C[C@@H]2CC[C@H]([C@H](O)c3ccccc3)N2)cc1)N1CCN(c2ncccc2Cl)CC1 [Example 358] | 7.00 to 8.00
49 | O=C(c1ccc(C[C@@H]2CC[C@H]([C@H](O)c3ccccc3)N2)cc1)N1CCN(c2ccccc2O)CC1 [Example 359] | 7.00 to 8.00
50 | O=C(c1ccc(C[C@@H]2CC[C@H]([C@H](O)c3ccccc3)N2)cc1)N1CCN(c2ncccc2O)CC1 [Example 360] | 7.00 to 8.00
51 | COc1cccnc1N1CCN(C(=O)c2ccc(C[C@@H]3CC[C@H]([C@H](O)c4ccccc4)N3)cc2)CC1 [Example 361] | 7.00 to 8.00
52 | CCOc1cccnc1N1CCN(C(=O)c2ccc(C[C@@H]3CC[C@H]([C@H](O)c4ccccc4)N3)cc2)CC1 [Example 362] | 7.00 to 8.00
53 | CC(C)Oc1cccnc1N1CCN(C(=O)c2ccc(C[C@@H]3CC[C@H]([C@H](O)c4ccccc4)N3)cc2)CC1 [Example 363] | 7.00 to 8.00
54 | Cc1cccnc1N1CCN(C(=O)c2ccc(C[C@@H]3CC[C@H]([C@H](O)c4ccccc4)N3)cc2)CC1 [Example 364] | 7.00 to 8.00
55 | O=C(O)c1cccnc1N1CCN(C(=O)c2ccc(C[C@@H]3CC[C@H]([C@H](O)c4ccccc4)N3)cc2)CC1 [Example 365] | 6.00 to 7.00
56 | COC(=O)c1cccnc1N1CCN(C(=O)c2ccc(C[C@@H]3CC[C@H]([C@H](O)c4ccccc4)N3)cc2)CC1 [Example 366] | 7.00 to 8.00
57 | O=C(O)COc1cccnc1N1CCN(C(=O)c2ccc(C[C@@H]3CC[C@H]([C@H](O)c4ccccc4)N3)cc2)CC1 [Example 367] | 6.00 to 7.00
58 | COC(=O)COc1cccnc1N1CCN(C(=O)c2ccc(C[C@@H]3CC[C@H]([C@H](O)c4ccccc4)N3)cc2)CC1 [Example 368] | 7.00 to 8.00
59 | O=C(c1ccc(C[C@@H]2CC[C@H]([C@H](O)c3ccccc3)N2)cc1)N1CCN(c2ncccc2-c2ccc(F)cc2)CC1 [Example 369] | 7.00 to 8.00
60 | O=C(c1ccc(C[C@@H]2CC[C@H]([C@H](O)c3ccccc3)N2)cc1)N1CCN(c2ncccn2)CC1 [Example 370] | 6.00 to 7.00
61 | O=C(c1ccc(C[C@@H]2CC[C@H]([C@H](O)c3ccccc3)N2)cc1)N1CCN(c2nccnc2Cl)CC1 [Example 371] | 6.00 to 7.00
62 | Cc1cc(C)nc(N2CCN(C(=O)c3ccc(C[C@@H]4CC[C@H]([C@H](O)c5ccccc5)N4)cc3)CC2)n1 [Example 372] | 6.00 to 7.00
63 | O=C(c1ccc(C[C@@H]2CC[C@H]([C@H](O)c3ccccc3)N2)cc1)N1CCN(c2nccc3ccccc23)CC1 [Example 373] | 7.00 to 8.00
